Measured values from patent US20150174108A1, “METHOD OF WEIGHT REDUCTION” (priority 2012, published 2015).
Entries after “also recorded” stand apart in the source; their conditions may differ.

What was measured:
Format in all cases: in vivo, human
[1] = 24 week randomised placebo-controlled double-blind clinical trial: body weight; details: for ΔBW Week 24, Mean ± SD / ΔBW Week 24, Median (range): change from baseline (Day 0) to Week 24; for body weight change over the study: metformin-treated patients who received placebo; for BW Week 24, Mean ± SD / BW Week 24, Median (range): type 2 diabetes patients
Experimental: (§1) The safety and efficacy of methazolamide (40 mg administered twice daily) as a potential treatment for type 2 diabetes were evaluated in a 24 week, randomised, placebo-controlled double-blind clinical trial. The primary efficacy endpoint for the clinical trial was a reduction in HbA1c (ΔHbA1c) from baseline with methazolamide, relative to placebo, after 24 weeks of treatment. Secondary efficacy endpoints included reduction in body weight and improvements in cardiovascular measures such as blood pressure. The primary safety measurement was the effect of methazolamide, compared to placebo, on venous blood gas parameters; a measure of acidosis.
(§2) The clinical trial initially enrolled type 2 diabetes patients who were not treated with any anti-diabetic agent prior to entry into the trial (NAIVE) The trial was expanded to include participants who had been treated with metformin for at least 3 months and were on a stable metformin dose for at least 8 weeks prior to entering the trial (MET). The metformin dose was not altered throughout the trial.
(§3) Participants randomized into the clinical trial were administered either daily doses of methazolamide (40 mg b.i.d.) or placebo for 24 weeks. Methazolamide was taken as 1×30 mg capsule and 1×10 mg capsule per dose at breakfast and dinner. Placebo (microcrystalline cellulose) was administered in identical presentation. After an initial randomization visit to the clinic (Day 0), participants returned to the clinic at weeks 1, 2, 4, 8, 12, 18 and 24 for physical examinations, laboratory analyses, body composition measures, evaluation of glycemic parameters (fasting blood glucose, fasting insulin, HbA1c) and measurement of venous blood gas analysis.
(§4) Mean changes in body weight over time are depicted in FIG. 1.
Thus an unexpected and selective effect of methazolamide on the metformin-treated patients was observed.

[2] = 24 week randomised placebo-controlled double-blind clinical trial: HbA1c; details: for ΔHbA1c Week 24, Mean ± SD / ΔHbA1c Week 24, Median (range): change from baseline (Day 0) to Week 24; for HbA1c Week 24, Mean ± SD / HbA1c Week 24, Median (range): type 2 diabetes patients, methazolamide 40 mg b.i.d.
Experimental: as §1, §2, §3, §4

[3] = 24 week randomised placebo-controlled double-blind clinical trial: body mass index; details: for ΔBMI Week 24, Mean ± SD / ΔBMI Week 24, Median (range): change from baseline (Day 0) to Week 24; for BMI Week 24, Mean ± SD / BMI Week 24, Median (range): type 2 diabetes patients
Experimental: as §1, §2, §3, §4

[4] = difference to the matching placebo group, Week 24

Row | SMILES | ΔBW Week 24, Mean ± SD [1] [kg] | ΔBW Week 24, Median (range) [1] | body weight change over the study ([1]; 24 weeks) | body weight change over the study ([1]; 24 weeks, listed as metformin and placebo) | BW Week 24, Mean ± SD [1] [kg] | BW Week 24, Median (range) [1] | ΔHbA1c Week 24, Mean ± SD [2] [%] | ΔHbA1c Week 24, Median (range) [2] | HbA1c Week 24, Mean ± SD [2] [%] | HbA1c Week 24, Median (range) [2] | ΔBMI Week 24, Mean ± SD [3] [kg/m^2] | ΔBMI Week 24, Median (range) [3] | BMI Week 24, Mean ± SD [3] [kg/m^2] | BMI Week 24, Median (range) [3] | effect on body weight versus placebo ([1]; Naïve patients not using metformin, 24 weeks) | ΔBW Week 24, MTZ − Placebo [1, 4] | average body weight lost over the 24 week period ([1]; metformin-treated patients further treated with methazolamide) [kg] | body weight lost as share of starting body weight ([1]; metformin-treated patients further treated with methazolamide, 24 weeks) [%] | ΔHbA1c Week 24, MTZ − Placebo [2, 4] [%] | ΔBMI Week 24, MTZ − Placebo [3, 4]
1 | CN(C)C(=N)NC(=N)N [Placebo + Met, metformin] | -0.3 ± 1.7 | −0.5 (−2.8, +3.9) kg | largely stable body weight | did not significantly change | 90.3 ± 15.9 | 87.6 (68.5, 133.6) kg | −0.04 ± 0.71 | −0.2 (−0.9, +1.4) % | 7.50 ± 0.84 | 7.3 (6.6, 9.8) % | −0.06 ± 0.58 | −0.2 (−0.8, +1.5) kg/m^2 | 29.7 ± 4.7 | 29.1 (23.6-39.5) kg/m^2 |  |  |  |  |  | 
2 | CC(=O)/N=c1/sc(S(N)(=O)=O)nn1C [methazolamide] | -2.3 ± 2.4 | −1.8 (−9.8, +1.3) kg |  |  | 90.7 ± 14.0 | 95.3 (63.3, 106.0) kg | −0.26 ± 0.72 | −0.3 (−2.1, +0.8) % | 6.88 ± 0.63 | 7.0 (6.1, 8.0) % | −0.77 ± 0.79 | −0.6 (−3.1, +0.5) kg/m^2 | 31.5 ± 5.1 | 32.0 (24.7-39.0) kg/m^2 | no differences were observed; also recorded: No such additional effect | +0.8 kg | 2.2 | 2 | −0.1 | +0.4 kg/m^2
